From patent US20260226034A1 (The Rockefeller University, priority 2023, published 2026)

What follows are molecules tested against NSP14 (Severe acute respiratory syndrome coronavirus 2, UniProt P0DTD1) (assay: NSP14 MTase inhibition assay at 37° C. (MTase-Glo SAH detection)). Details: 0.3 nM NSP14, 2.5 μM SAM, 2.5 μM GpppA RNA, 45 min at 37° C.; read-out: Nsp14 Mtase Inh. IC50.
Type: biochemical, SARS-CoV-2
Protocol: NSP14 MTase assay at 37° C. (0.3 nM NSP14 as final enzyme concentration)
The NSP14 MTase assay at 37° C. is carried out in 384-well flat bottom polystyrene microplates (Greiner, 781075). Per well, 10 μl of 1×NSP14 reaction buffer (50 mM Tris-HCl, pH 7.5, 6 mM KCl, 1.25 mM MgCl2, 1 mM DTT, and 0.01% Tween-20) are dispensed in columns 1-23 using a Thermo Multidrop Combi dispenser (Thermo Scientific). 0.1 μl of serially diluted compounds in DMSO are dispensed into columns 1-22 of the assay microplates with a Janus 384 MDT NanoHead (PerkinElmer). In wells of column 23, which serve as negative controls, no compounds are added.
The NSP14 reaction is started by adding 4 μl of a 4× substrate solution containing S-adenosyl methionine (SAM, 10 μM) and GpppA RNA (10 μM) prepared in 1×NSP14 reaction buffer. Any addition of reagents is followed by a 30 second centrifugation at 500×g to ensure that all liquid was collected at the bottom of the well. The final concentrations of NSP14, SAM, and GpppA RNA are 0.3 nM, 2.5 μM, and 2.5 μM, respectively. The final reaction volume is 16 μl. Plates are sealed and incubated for 45 min at 37° C.
For SAH detection, 1 μl 5× MTase-Glo™ Reagent (Promega) is added to each well, plates are mixed for 1-2 minutes and incubated at room temperature for 30 minutes. 5 μl of room-temperature MTase-Glo™ Detection Solution (Promega) is added to each well, plates are mixed for 1-2 minutes and incubated at room temperature for 30 minutes. Luminescence signals of each well are recorded in relative light units (RLUs) using a Biotek Synergy Neo plate reader (BioTek, Winooski, VT). The SAH production is normalized against the positive control (PK, column 24) and negative control (NK, column 23) as follows: normalized % inhibition=100×(RLUsample-RLUaverageNK)/(RLUaveragePK-RLUaverageNK).

Compared with `Cc1cc(S(=O)(=O)c2cc(C(=O)NCc3c(F)ccc4occc34)n(C)c2C)cc2cn[nH]c12` [A.1, N-[(5-fluorobenzofuran-4-yl)methyl]-1,5-dimethyl-4-[(7-methyl-1H-indazol-5-yl)sulfonyl]pyrrole-2-carboxamide], `Cc1c(S(=O)(=O)c2ccc3[nH]ncc3c2)cc(C(=O)NCc2c(F)ccc3occc23)n1C` [A.2] is 1.6-fold higher in IC50: 0.2 nM for the first, 0.32 nM for the second.

Compared with `Cc1c(S(=O)(=O)c2ccc3[nH]ncc3c2)cc(C(=O)NCc2cccc3cnn(C)c23)n1C` [A.3], `Cc1c(S(=O)(=O)c2ccc3[nH]ncc3c2)cc(C(=O)NCc2cccc3cnn(C4CC4)c23)n1C` [A.5] is 4.3-fold higher in IC50: 0.35 nM for the first, 1.5 nM for the second.

Compared with `Cc1c(S(=O)(=O)c2ccc3c(cnn3C)c2)cc(C(=O)NCc2c(F)ccc3ncn(C4CC4)c23)n1C` [A.4, N-[(3-cyclopropyl-5-fluoro-benzimidazol-4-yl)methyl]-1,5-dimethyl-4-(1-methylindazol-5-yl)sulfonyl-pyrrole-2-carboxamide], `Cc1c(S(=O)(=O)c2ccc3c(cnn3C)c2)cc(C(=O)NCc2c(F)ccc3cnn(C)c23)n1C` [A.18] is 36-fold higher in IC50: 0.5 nM for the first, 18 nM for the second. The first is the more potent here.

`Cc1c(S(=O)(=O)c2cccc(C#N)c2)cc(C(=O)NCc2cccc3cnn(C)c23)n1C` [A.6, 4-(3-cyanophenyl)sulfonyl-1,5-dimethyl-N-[(1-methylindazol-7-yl)methyl]pyrrole-2-carboxamide] and `Cc1c(S(=O)(=O)c2cccc(Cl)c2)cc(C(=O)NCc2cccc3cnn(C)c23)n1C` [A.9] are within 1.5-fold of each other in IC50: 1.7 nM for the first, 2.1 nM for the second.

First: Cc1c(S(=O)(=O)c2ccccc2)cc(C(=O)NCc2c(F)ccc3cnn(C)c23)n1C [A.7, N-((6-fluoro-1-methyl-1H-indazol-7-yl)methyl)-1,5-dimethyl-4-(phenylsulfonyl)-1H-pyrrole-2-carboxamide]
Second: Cc1c(S(=O)(=O)c2ccccc2)cc(C(=O)NCc2c(F)ccc3cnn(C4CC4)c23)n1C [A.10]
The IC50 of the first is 2.9-fold lower: 1.7 nM for the first, 4.9 nM for the second. The first is the more potent here.

Compared with `Cc1c(S(=O)(=O)c2ccc3occc3c2)cc(C(=O)NCc2cccc3cnn(C)c23)n1C` [A.8], `Cc1c(S(=O)(=O)c2ccc3c(cnn3C)c2)cc(C(=O)NCc2cccc3cnn(C)c23)n1C` [A.12] is 3.1-fold higher in IC50: 1.8 nM for the first, 5.6 nM for the second. The first is the more potent here.

First: Cc1c(S(=O)(=O)c2ccc(Cl)cc2)cc(C(=O)NCc2cccc3cnn(C)c23)n1C [A.11]
Second: Cc1c(S(=O)(=O)c2ccc(F)cc2)cc(C(=O)NCc2cccc3cnn(C)c23)n1C [A.17]
The IC50 of the first is 3-fold lower: 5.3 nM for the first, 16 nM for the second. The first is the more potent here.

Compared with `Cc1c(S(=O)(=O)c2ccc3[nH]ncc3c2)cc(C(=O)NCc2cccn3nccc23)n1C` [A.13], `COc1ccccc1CNC(=O)c1cc(S(=O)(=O)c2ccc3c(cnn3C)c2)c(C)n1C` [A.23] is 9.4-fold higher in IC50: 7.2 nM for the first, 68 nM for the second.

Compared with `Cc1c(S(=O)(=O)c2ccc3occc3c2)cc(C(=O)NCc2c(F)ccc3occc23)n1C` [A.14], `Cc1c(S(=O)(=O)c2ccc3c(cnn3C)c2)cc(C(=O)NCc2c(F)ccc3occc23)n1C` [A.19] is 2.7-fold higher in IC50: 7.7 nM for the first, 21 nM for the second.

Going from `Cc1c(S(=O)(=O)c2ccc(=O)n(C)c2)cc(C(=O)NCc2cccc3cnn(C)c23)n1C` [A.15] to `COc1ccc(S(=O)(=O)c2cc(C(=O)NCc3cccc4cnn(C)c34)n(C)c2C)cn1` [A.28], the IC50 rises from 13.4 nM to 119 nM (8.9-fold). The first is the more potent here.

Compared with `Cc1c(S(=O)(=O)c2ccccc2)cc(C(=O)NCc2cccc3cnn(C)c23)n1C` [A.16], `Cc1c(S(=O)(=O)c2ccncc2)cc(C(=O)NCc2cccc3cnn(C)c23)n1C` [A.27] is 6.8-fold higher in IC50: 15 nM for the first, 102 nM for the second. The first is the more potent here.

Compared with `Cc1c(S(=O)(=O)c2ccccc2)cc(C(=O)NCc2c(F)ccc3occc23)n1C` [A.20], `CC(=O)Nc1ccc(S(=O)(=O)c2cc(C(=O)NCc3c(F)ccc4occc34)n(C)c2C)cc1` [A.30] is 11-fold higher in IC50: 22 nM for the first, 243 nM for the second. The first is the more potent here.

First: Cc1c(S(=O)(=O)c2ccc(C(N)=O)cc2)cc(C(=O)NCc2cccc3cnn(C)c23)n1C [A.21]
Second: Cc1c(S(=O)(=O)c2ccc(C(C)O)cc2)cc(C(=O)NCc2cccc3cnn(C)c23)n1C (centres unmarked) [A.32, 4-[4-(1-hydroxyethyl)phenyl]sulfonyl-1,5-dimethyl-N-[(1-methylindazol-7-yl)methyl]pyrrole-2-carboxamide]
The IC50 of the first is 7.3-fold lower: 53 nM for the first, 389 nM for the second. The first is the more potent here.

`Cc1c(S(=O)(=O)c2ccccc2)cc(C(=O)NCc2cccnc2N2CCCC2)n1C` [A.22] and `Cc1c(S(=O)(=O)c2ccc(C#N)cc2)cc(C(=O)NCc2cccc3cnn(C)c23)n1C` [A.24] are within 1.5-fold of each other in IC50: 67 nM for the first, 89 nM for the second.

Compared with `Cc1c(S(=O)(=O)c2cnc3c(cnn3C)c2)cc(C(=O)NCc2cccc3cnn(C)c23)n1C` [A.29], `Cc1c(S(=O)(=O)c2ccc3nn[nH]c3c2)cc(C(=O)NCc2c(F)ccc3occc23)n1C` [A.31, 4-((1H-benzo[d][1,2,3]triazol-6-yl)sulfonyl)-N-((5-fluorobenzofuran-4-yl)methyl)-1,5-dimethyl-1H-pyrrole-2-carboxamide] is 2-fold higher in IC50: 160 nM for the first, 315 nM for the second. The first is the more potent here.

First: Cc1c(S(=O)(=O)c2ccc3[nH]ncc3c2)cc(C(=O)N[C@@H]2CCN(c3ncc(F)cn3)C2)n1C [A.34, N-[(3R)-1-(5-fluoropyrimidin-2-yl)pyrrolidin-3-yl]-4-(1H-indazol-5-ylsulfonyl)-1,5-dimethyl-pyrrole-2-carboxamide]
Second: Cc1c(S(=O)(=O)c2ccc3[nH]ncc3c2)cc(C(=O)N[C@H]2CCN(c3ncc(F)cn3)C2)n1C [A.47]
The IC50 of the first is 13-fold lower: 0.17 nM for the first, 2.2 nM for the second.

Going from `Cc1c(S(=O)(=O)c2ccc3[nH]ncc3c2)cc(C(=O)NC2CCN(c3ncc(F)cn3)CC2)n1C` [A.35] to `Cc1c(S(=O)(=O)c2ccc3[nH]ncc3c2)cc(C(=O)NC2CN(c3ncc(F)cn3)C2)n1C` [A.36], the IC50 rises from 0.56 nM to 2.2 nM (3.9-fold). The first is the more potent here.

First: Cc1c(S(=O)(=O)c2ccc3[nH]ncc3c2)cc(C(=O)N[C@@H]2CCN(c3ncccc3C#N)C2)n1C [A.37]
Second: Cc1c(S(=O)(=O)c2ccc3[nH]ncc3c2)cc(C(=O)N[C@@H]2CCN(c3ncccc3F)C2)n1C [A.43]
The IC50 of the first is lower: under 0.15 nM for the first, 0.42 nM for the second. The first is the more potent here.

Going from `Cc1c(S(=O)(=O)c2ccc3[nH]ncc3c2)cc(C(=O)N[C@@H]2CCN(c3cccc(C(F)(F)F)n3)C2)n1C` [A.38] to `Cc1c(S(=O)(=O)c2ccc3[nH]ncc3c2)cc(C(=O)N[C@@H]2CCN(c3ccc(F)cn3)C2)n1C` [A.51], the IC50 falls from 0.8 nM to under 0.15 nM. The second is the more potent here.

`Cc1c(S(=O)(=O)c2ccc3[nH]nc(F)c3c2)cc(C(=O)N[C@@H]2CCN(c3ncc(F)cn3)C2)n1C` [A.39] and `Cc1c(S(=O)(=O)c2cc(F)c3[nH]ncc3c2)cc(C(=O)N[C@@H]2CCN(c3ncc(F)cn3)C2)n1C` [A.40] cannot be ordered by IC50: under 0.15 nM for the first, under 0.15 nM for the second.

First: Cc1c(S(=O)(=O)c2cc(Cl)c3[nH]ncc3c2)cc(C(=O)N[C@@H]2CCN(c3ncc(F)cn3)C2)n1C [A.41]
Second: Cc1c(S(=O)(=O)c2ccc3[nH]ncc3c2)cc(C(=O)N[C@@H]2CCN(c3ncc(Cl)cn3)C2)n1C [A.42]
The IC50 of the first is lower: under 0.15 nM for the first, 0.42 nM for the second. The first is the more potent here.

`Cc1c(S(=O)(=O)c2ccc3[nH]ncc3c2)cc(C(=O)N[C@@H]2CCN(c3ccc(Cl)cn3)C2)n1C` [A.44] and `Cc1c(S(=O)(=O)c2ccc3[nH]ncc3c2)cc(C(=O)N[C@@H]2CCN(c3cnc(F)cn3)C2)n1C` [A.50] cannot be ordered by IC50: under 0.15 nM for the first, under 0.15 nM for the second.

Going from `Cc1c(S(=O)(=O)c2ccc3[nH]ncc3c2)cc(C(=O)N[C@@H]2CCN(c3nccc(C#N)n3)C2)n1C` [A.45] to `Cc1c(S(=O)(=O)c2ccc3[nH]ncc3c2)cc(C(=O)N[C@@H]2CCN(c3ncc(C#N)cn3)C2)n1C` [A.49], the IC50 rises from 0.37 nM to 0.63 nM (1.7-fold). The first is the more potent here.

First: Cc1c(S(=O)(=O)c2ccc3[nH]ncc3c2)cc(C(=O)NC2CN(c3ncc(F)cn3)C[C@@H]2F)n1C (some centres unmarked) [A.46]
Second: Cc1c(S(=O)(=O)c2ccc3[nH]ncc3c2)cc(C(=O)N[C@H]2CN(c3ncc(F)cn3)C[C@H]2F)n1C [A.48]
The IC50 of the first is 43-fold lower: 0.77 nM for the first, 33 nM for the second. The first is the more potent here.

Going from `Cc1c(S(=O)(=O)c2ccc3[nH]ncc3c2)cc(C(=O)N[C@@H]2CCN(c3ncc(C(F)(F)F)cn3)C2)n1C` [A.52] to `Cc1c(S(=O)(=O)c2ccc3[nH]ncc3c2)cc(C(=O)N[C@@H]2CCN(c3ncc(F)cc3F)C2)n1C` [A.54], the IC50 falls from 0.3 nM to under 0.15 nM.

First: Cc1c(S(=O)(=O)c2ccc3[nH]ncc3c2)cc(C(=O)N[C@@H]2CCN(c3ccc(F)nn3)C2)n1C [A.53]
Second: Cc1c(S(=O)(=O)c2ccc3[nH]ncc3c2)cc(C(=O)N[C@@H]2CCN(c3ccc(F)nc3)C2)n1C [A.56]
The IC50 of the first is 1.8-fold higher: 0.36 nM for the first, 0.2 nM for the second. The second is the more potent here.

First: Cc1c(S(=O)(=O)c2ccc3[nH]ncc3c2)cc(C(=O)N[C@@H]2CCN(c3cccc4ccnn34)C2)n1C [A.55]
Second: Cc1c(S(=O)(=O)c2ccc3[nH]ncc3c2)cc(C(=O)N[C@@H]2CCN(c3ccc(C#N)cc3)C2)n1C [A.57]
The IC50 of the first is 1.6-fold higher: 0.9 nM for the first, 0.57 nM for the second.

Same assay, conditions: 37° C., 0.3 nM NSP14, 2.5 μM SAM, 2.5 μM GpppA RNA; read-out: Nsp14 Mtase Inh. IC50

Molecule `Cc1c(S(=O)(=O)c2ccc3[nH]ncc3c2)cc(C(=O)N[C@H]2Cc3ccccc32)n1C` (single isomer, unassigned) [B.170] has an IC50 of 2.5 nM.
`Cc1c(S(=O)(=O)c2ccc3[nH]ncc3c2)cc(C(=O)N[C@H]2Cc3ccccc32)n1C` (single isomer, unassigned) [B.171] gave an IC50 of 2.7 nM.
